We go through twelve compounds from patent US9839639B2, “Neprilysin inhibitors” (THERAVANCE BIOPHARMA R&D IP, LLC, priority 2014, dated 2017).

The pKi is −log10 of the Ki, conventionally taken in molar units. Broadly, the bioavailability is the share of a dose that reaches the circulation, judged against a reference dose that is usually intravenous.

Data set [1] addresses T1, human NEP (Homo sapiens, UniProt P08473).
T1 construct: purchased R&D Systems, Minneapolis, Minn; 1182-ZN
The data set can be described thus: In vitro enzyme inhibition assay, inhibitor potency at human NEP. Type of data set: biochemical. The note with it: recombinant human NEP, fluorogenic peptide substrate 10 μM, 37° C.; values given as ranges. Here is the method: The inhibitory activities of compounds at human and rat neprilysin (EC 3.4.24.11; NEP) and human angiotensin converting enzyme (ACE) were determined using in vitro assays as described below.
Recombinant human NEP and recombinant human ACE were obtained commercially (R&D Systems, Minneapolis, Minn., catalog numbers 1182-ZN and 929-ZN, respectively). The fluorogenic peptide substrate Mca-D-Arg-Arg-Leu-Dap-(Dnp)-OH (Medeiros et al. (1997) Braz. J. Med. Biol. Res. 30:1157-62; Anaspec, San Jose, Calif.) and Abz-Phe-Arg-Lys(Dnp)-Pro-OH (Araujo et al. (2000) Biochemistry 39:8519-8525; Bachem, Torrance, Calif.) were used in the NEP and ACE assays respectively.
The assays were performed in 384-well white opaque plates at 37° C. using the fluorogenic peptide substrates at a concentration of 10 μM in Assay Buffer (NEP: 50 mM HEPES, pH 7.5, 100 mM NaCl, 0.01% polyethylene glycol sorbitan monolaurate (Tween-20), 10 μM ZnSO4; ACE: 50 mM HEPES, pH 7.5, 100 mM NaCl, 0.01% Tween-20, 1 μM ZnSO4).
Test compounds were assayed over the range of concentrations from 10 μM to 20 pM. Test compounds were added to the enzymes and incubated for 30 minute at 37° C. prior to initiating the reaction by the addition of substrate. Reactions were terminated after 20 minutes of incubation at 37° C. by the addition of glacial acetic acid to a final concentration of 3.6% (v/v).
Plates were read on a fluorometer with excitation and emission wavelengths set to 320 nm and 405 nm, respectively. Inhibition constants were obtained by nonlinear regression of the data using the equation (GraphPad Software, Inc., San Diego, Calif.): v=v0/[1+(I/K′)] where v is the reaction rate, v0 is the uninhibited reaction rate, I is the inhibitor concentration and K′ is the apparent inhibition constant.
Compounds of the invention were tested in this assay and found to have pKi values at human NEP as follows.

Data set [2] in a line: Rat PO cassette assay (oral bioavailability). Type of data set: in vivo. As to conditions: plasma, male Sprague-Dawley rats, single oral gavage vs intravenous dose, 0.5 mg/kg, read-out: % F (oral bioavailability). From the text: Oral bioavailability, or % F, is a measure of the percentage of a drug in an oral dose that actually reaches the systemic circulation. Compound losses can occur due to incomplete formulation dissolution, incomplete absorption due to compound insolubility or instability along the GI, or metabolism in the gut or across the gut wall. The fraction of the dose which reaches the hepatic portal vein must also then pass through the liver before reaching the systemic circulation. Compound metabolism, or “first-pass extraction,” can occur during this initial passage through the liver, and this is an additional potential source of compound loss. Oral bioavailability is calculated as the dose-normalized ratio of drug exposure after an oral dose to that after an intravenous dose, wherein the entire dose is delivered directly to the systemic circulation.
Each cassette study begins with 10 mM DMSO stock solutions of up to 5 different compounds. Typically, compounds are selected such no two compounds dosed in the same cassette have a molecular weight within 5 Da of each other. This simplifies subsequent bioanalysis. Appropriate volumes of each DMSO stock are added into a volume of vehicle (5% sodium bicarbonate, 5% dextrose in H2O) such that the final concentration of each compound is 0.25 mg/mL. Intravenous dosing solutions are sterile-filtered (0.2 μm) prior to dosing.
Pre-cannulated male Sprague-Dawley rats (3 per cassette per route) between 8 and 10 weeks of age were obtained from Harlan Laboratories (Indianapolis, Ind.). Rats received either a single oral gavage or a single intravenous (via lateral tail vein) dose (2 mL/kg) of the dosing solution. The final dose was 0.5 mg/kg. Serial blood samples were harvested via jugular vein cannula at 3 minutes, 15 minutes, 30 minutes, 1 hours, 2 hours, 4 hours, 6 hours, and 24 hours post-dose. Sampling was performed either manually or using automated blood samplers. Samples were collected into microtainer tubes containing EDTA as the anticoagulant and are processed to plasma by refrigerated centrifugation.
Plasma samples were extracted with 3 volumes of MeCN containing a suitable internal standard. Extracts were reconstituted into 3 volumes of water containing 1% formic acid, and analyzed via HPLC-coupled MS/MS. Plasma concentration-time data were analyzed using the Phoenix software (Pharsight Corp., St. Louis, Mo.) to calculate pharmacokinetic parameters.
Compounds of the invention of particular interest were those having a % F>10%, when tested in this assay.

pKi: −log10 of the molar value.

T1 sequence (P08473 52-750 limits assumed): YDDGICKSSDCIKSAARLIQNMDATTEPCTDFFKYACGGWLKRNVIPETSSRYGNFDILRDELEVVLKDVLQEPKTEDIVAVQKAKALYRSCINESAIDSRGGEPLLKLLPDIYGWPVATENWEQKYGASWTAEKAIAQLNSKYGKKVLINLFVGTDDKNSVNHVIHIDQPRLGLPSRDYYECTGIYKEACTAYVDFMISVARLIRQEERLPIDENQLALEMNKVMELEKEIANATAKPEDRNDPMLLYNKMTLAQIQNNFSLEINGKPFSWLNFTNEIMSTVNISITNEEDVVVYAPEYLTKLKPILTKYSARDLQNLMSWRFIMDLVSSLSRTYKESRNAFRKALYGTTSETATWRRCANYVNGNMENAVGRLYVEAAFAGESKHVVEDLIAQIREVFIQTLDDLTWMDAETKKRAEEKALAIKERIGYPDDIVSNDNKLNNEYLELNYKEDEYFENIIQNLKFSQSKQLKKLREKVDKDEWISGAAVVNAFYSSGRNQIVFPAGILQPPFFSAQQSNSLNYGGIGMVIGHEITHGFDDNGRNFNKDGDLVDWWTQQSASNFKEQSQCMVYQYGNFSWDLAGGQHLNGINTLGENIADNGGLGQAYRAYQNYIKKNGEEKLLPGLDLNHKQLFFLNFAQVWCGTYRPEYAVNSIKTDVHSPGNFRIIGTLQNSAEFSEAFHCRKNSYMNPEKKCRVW

For `CCOC[C@](C)(C[C@@H](Cc1ccc(-c2cccc(Cl)c2)cc1)NC(=O)c1noc(=O)[nH]1)C(=O)O` [Example 9, (2S,4R)-5-(3′-Chlorobiphenyl-4-yl)-2-ethoxymethyl-2-methyl-4-[(5-oxo-4,5-dihydro-[1,2,4]oxadiazole-3-carbonyl)amino]pentanoic Acid], the pKi in data set [1] was ≥ 9.00. For the same compound, the bioavailability in data set [2] is > 10%.
For `O=C(N[C@H](Cc1ccc(-c2cc(Cl)ccc2F)cc1)CC1(C(=O)O)CCOC1)c1cnn[nH]1` (single isomer, unassigned) [Example 20a] the same measures were ≥ 9.00 and > 10%.
`CCC(CO)(C[C@@H](Cc1ccc(-c2cc(Cl)ccc2F)cc1)NC(=O)c1cnn[nH]1)C(=O)O` (single isomer, unassigned) [Example 14a]: the pKi in data set [1] is ≥ 9.00. Moreover, the bioavailability in data set [2] was > 10%.
The like results for `CCOC[C@](C)(C[C@@H](Cc1ccc(-c2cc(Cl)ccc2F)cc1)NC(=O)c1n[nH]nc1C)C(=O)O` [Example 11-4, (2S,4R)-5-(5′-Chloro-2′-fluorobiphenyl-4-yl)-2-ethoxymethyl-2-methyl-4-[(5-methyl-2H-[1,2,3]triazole-4-carbonyl)amino]pentanoic acid] were, in that order, 8.50 to 8.90 and > 10%.
Regarding `CCCC(CO)(C[C@@H](Cc1ccc(-c2cc(Cl)ccc2F)cc1)NC(=O)c1cnn[nH]1)C(=O)O` (single isomer, unassigned) [Example 15a], the pKi in data set [1] is ≥ 9.00. In addition, the bioavailability in data set [2] was > 10%.
Consider `O=C(N[C@H](Cc1ccc(-c2cc(Cl)ccc2F)cc1)CC(CO)(CCO)C(=O)O)c1cnn[nH]1` (single isomer, unassigned) [Example 16a], for which the negative-log Ki (pKi) in data set [1] was 8.50 to 8.90.
On the same count and under the same terms, with `C[C@@](CN)(C[C@@H](Cc1ccc(-c2cc(Cl)ccc2F)cc1)NC(=O)c1ccn(C(F)F)n1)C(=O)O` [Example 3, (2S,4R)-2-Aminomethyl-5-(5′-chloro-2′-fluorobiphenyl-4-yl)-4-[(1-difluoromethyl-1H-pyrazole-3-carbonyl)amino]-2-methylpentanoic Acid] the figure was 8.50 to 8.90; with `CCOC[C@](C)(C[C@@H](Cc1ccc(-c2cc(Cl)ccc2F)cc1)NC(=O)c1coc(C2CC2)n1)C(=O)O` [Example 10, (2S,4R)-5-(5′-Chloro-2′-fluorobiphenyl-4-yl)-4-[(2-cyclopropyoxazole-4-carbonyl)amino]-2-ethoxymethyl-2-methylpentanoic Acid], 8.50 to 8.90; with `COC[C@](C)(C[C@@H](Cc1ccc(-c2cc(Cl)ccc2F)cc1)NC(=O)c1coc(C2CC2)n1)C(=O)O` [Example 8-2, (2S,4R)-5-(5′-Chloro-2′-fluorobiphenyl-4-yl)-4-[(2-cyclopropyloxazole-4-carbonyl)amino]-2-methoxymethyl-2-methylpentanoic acid], 8.50 to 8.90.
On the same count and under the same terms, the same measure for `CC(=O)NCCC(CO)(C[C@@H](Cc1ccc(-c2cc(Cl)ccc2F)cc1)NC(=O)c1cnn[nH]1)C(=O)O` (stereo partly drawn) [Example 18, (R)-2-(2-Acetylaminoethyl)-5-(5′-chloro-2′-fluorobiphenyl-4-yl)-2-hydroxymethyl-4-[(3H-[1,2,3]triazole-4-carbonyl)amino]pentanoic Acid]: ≥ 9.00; for `CC(C#N)(C[C@@H](Cc1ccc(-c2cc(Cl)ccc2F)cc1)NC(=O)c1cnn[nH]1)C(=O)O` (single isomer, unassigned) [Example 12b]: ≥ 9.00.
`CCC(C#N)(C[C@@H](Cc1ccc(-c2cc(Cl)ccc2F)cc1)NC(=O)c1cnn[nH]1)C(=O)O` (single isomer, unassigned) [Example 23a]: in data set [1], the pKi was ≥ 9.00.
